Experimental data as given in PMC2694132 (Cancer research, 2009).

What was measured:
[1] = target: T1, UGT1A7 (Homo sapiens, UniProt Q9HAW7); assay: SAHA glucuronidation, wild-type UGT1A7; assay type: in vitro ADME
T1 sequence (Q9HAW7 26-530): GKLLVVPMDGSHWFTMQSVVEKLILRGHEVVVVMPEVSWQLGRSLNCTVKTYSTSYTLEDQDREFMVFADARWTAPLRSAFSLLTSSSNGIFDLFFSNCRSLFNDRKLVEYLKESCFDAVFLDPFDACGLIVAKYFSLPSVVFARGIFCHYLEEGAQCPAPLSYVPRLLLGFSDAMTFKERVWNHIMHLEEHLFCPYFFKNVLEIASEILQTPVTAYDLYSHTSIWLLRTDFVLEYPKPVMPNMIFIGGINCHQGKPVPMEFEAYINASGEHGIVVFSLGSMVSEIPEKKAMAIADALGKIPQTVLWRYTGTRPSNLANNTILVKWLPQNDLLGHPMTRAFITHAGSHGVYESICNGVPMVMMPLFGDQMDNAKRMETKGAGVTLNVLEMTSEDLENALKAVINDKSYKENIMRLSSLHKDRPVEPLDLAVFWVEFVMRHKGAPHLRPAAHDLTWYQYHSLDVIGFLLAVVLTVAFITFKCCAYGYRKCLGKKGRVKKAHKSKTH

[2] = target: T2, UGT1A6 (Homo sapiens, UniProt P19224); assay: SAHA glucuronidation screen, UGT1A6-overexpressing cell homogenate; assay type: in vitro ADME
T2 sequence (P19224 27-532): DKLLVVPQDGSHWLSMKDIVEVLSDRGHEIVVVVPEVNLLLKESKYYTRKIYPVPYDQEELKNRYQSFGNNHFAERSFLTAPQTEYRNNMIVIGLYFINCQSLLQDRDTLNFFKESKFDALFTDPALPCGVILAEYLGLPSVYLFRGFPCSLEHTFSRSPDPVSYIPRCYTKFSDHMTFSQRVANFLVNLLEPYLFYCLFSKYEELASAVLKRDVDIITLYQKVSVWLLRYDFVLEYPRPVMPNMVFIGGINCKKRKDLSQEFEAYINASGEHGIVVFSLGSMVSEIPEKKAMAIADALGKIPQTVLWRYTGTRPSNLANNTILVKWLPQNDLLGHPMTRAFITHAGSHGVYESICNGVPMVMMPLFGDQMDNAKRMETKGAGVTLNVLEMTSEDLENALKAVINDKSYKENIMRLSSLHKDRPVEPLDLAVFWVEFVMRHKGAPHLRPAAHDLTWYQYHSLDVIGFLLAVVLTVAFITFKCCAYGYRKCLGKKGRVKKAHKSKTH

[3] = target: T3, UGT2B7 (Homo sapiens, UniProt P16662); assay: SAHA glucuronidation screen, UGT2B7-overexpressing cell homogenate; assay type: in vitro ADME
T3 sequence (P16662 24-529): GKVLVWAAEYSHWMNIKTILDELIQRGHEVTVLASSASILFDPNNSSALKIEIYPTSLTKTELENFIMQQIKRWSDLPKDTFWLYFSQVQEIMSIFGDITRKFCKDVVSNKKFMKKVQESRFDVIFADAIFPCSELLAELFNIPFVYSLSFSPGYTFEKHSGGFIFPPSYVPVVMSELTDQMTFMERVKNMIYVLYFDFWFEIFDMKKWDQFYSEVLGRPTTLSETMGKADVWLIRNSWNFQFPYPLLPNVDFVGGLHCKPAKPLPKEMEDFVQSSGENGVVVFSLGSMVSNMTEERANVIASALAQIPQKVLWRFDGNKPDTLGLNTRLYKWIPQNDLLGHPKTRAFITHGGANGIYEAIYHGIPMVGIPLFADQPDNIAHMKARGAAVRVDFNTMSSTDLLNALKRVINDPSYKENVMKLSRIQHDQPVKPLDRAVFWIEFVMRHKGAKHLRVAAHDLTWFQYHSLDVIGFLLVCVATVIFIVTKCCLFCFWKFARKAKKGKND

[4] = target: T4, UGT2B4 (Homo sapiens, UniProt P06133); assay: SAHA glucuronidation screen, UGT2B4-overexpressing cell homogenate; assay type: in vitro ADME; conditions: 400 μg UGT-overexpressing cell homogenate, 1-h incubation
T4 sequence (P06133 24-528): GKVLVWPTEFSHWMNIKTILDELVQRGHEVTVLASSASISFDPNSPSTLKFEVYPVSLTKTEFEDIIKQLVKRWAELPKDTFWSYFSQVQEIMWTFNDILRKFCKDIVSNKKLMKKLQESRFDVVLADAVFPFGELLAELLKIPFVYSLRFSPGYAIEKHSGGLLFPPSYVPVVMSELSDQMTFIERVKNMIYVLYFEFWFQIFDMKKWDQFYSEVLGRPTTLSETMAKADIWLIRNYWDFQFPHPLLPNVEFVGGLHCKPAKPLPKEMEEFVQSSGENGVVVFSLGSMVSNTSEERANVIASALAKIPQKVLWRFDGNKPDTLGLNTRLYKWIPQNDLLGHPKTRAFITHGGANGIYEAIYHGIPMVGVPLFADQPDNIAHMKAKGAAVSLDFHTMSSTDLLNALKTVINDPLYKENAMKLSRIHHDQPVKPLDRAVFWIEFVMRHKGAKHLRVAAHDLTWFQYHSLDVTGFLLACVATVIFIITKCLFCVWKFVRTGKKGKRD

[5] = patients treated with SAHA; cited from earlier work
[6] = 400 μg UGT-overexpressing cell homogenate, 1-h incubation

O=C(CCCCCCC(=O)Nc1ccccc1)NO [SAHA, Suberoylanilide hydroxamic acid]
glucuronidation against SAHA (screen) [1, 6]: high levels of glucuronidation
Km at 1 h ([1]; human, pH 7.5): 2.7 ± 0.6 mM
glucuronidation against SAHA [2, 6]: detectable levels of glucuronidation
Km at 1 h ([2]; human, UGT1A6-overexpressing cell homogenate, pH 7.5): > 8 mM
glucuronidation against SAHA [3, 6]: detectable levels of glucuronidation
Km at 1 h ([3]; human, UGT2B7-overexpressing cell homogenate, pH 7.5): > 8 mM
glucuronidation activity against SAHA (screen) [4]: No detectable glucuronidation activity
apparent terminal half-life [5]: ~ 1.8 hours
